For one assay, the system named is homed SKL cells. The assay is described as follows: In vivo cell cycle analysis (BrdU) of homed SKL cells. Also on record: species or system mouse. The following applies: BrdU treated recipient mice, 16 hours, vs vehicle pulsed cells. The protocol: For in vitro cell cycle analysis, Lin^neg cells were treated with either 1 microMolar dmPGE2 or vehicle for 2 hours, washed, and cultured in Stem Cell Pro Media (Stem Cell Technologies) with rmSCF (50 ng/ml) (R&D Systems, Minneapolis, Minn.), rhFlt-3 and rhTPO (100 ng/ml each) (Immunex, Seattle, Wash.). After 20 hours, cells were stained for SKL, fixed and permeabilized, and stained with 7AAD (BD Biosciences, San Jose, Calif.). The proportion of SKL cells in S+G2/M phase was determined by measuring DNA content by FACS. […] The proportion of homed (CD45.1^+) SKL cells that were BrdU^+ was determined by FACS in individual mice.
To confirm the effect of dmPGE2 on enhancement of HSPC cell cycle observed in vitro, marrow cells were pulsed with dmPGE2 and injected into congenic mice treated with BrdU post-transplant, and the proportion of donor BrdU^+ SKL cells was determined 16 hours later.
CD45.1 Lineage^neg bone marrow cells were treated with dmPGE2 or vehicle and transplanted into lethally irradiated CD45.2 mice. […] Bone marrow was analyzed 16 hours later and the proportion of CD45.1^+, SKL cells that were BrdU^+ was analyzed by FACS analysis. […] Bone marrow was analyzed 16 hours later and the proportion of CD45.1^+, SKL cells that were BrdU^+ was analyzed by FACS analysis. […]

The test system of assay [1] is CXCR4 on human CD34+ UCB cells. The assay is described as follows: CXCR4 surface expression by FACS after pulse exposure, human cells. The assay is classed as cell-based. The source says:
Expression of EP receptors, CXCR4 and Survivin Replicate Lin^neg cell samples from CD45.2 mice were stained for SKL and each of the EP receptors and surface receptor expression on KL and SKL cells determined by FACS. For human EP receptors, UCB was obtained from Wishard Hospital, Indianapolis, Ind. with Institutional Review Board approval. Mononuclear cells were isolated on Ficoll-Paque™ Plus (Amersham Biosciences) and CD34^+ cells positively selected with MACS microbeads (Miltenyi Biotech) (Fukuda and Pelus, 2001). Replicate cells were stained for CD34 and each of the EP receptors and surface expression determined by FACS. […] Cells were stained for SKL (murine cells) and CXCR4, Survivin, and/or active caspase-3, as described above, and analyzed by FACS.
To evaluate CXCR4, Lineage^neg mouse bone marrow cells or CD34^+ UCB were treated on ice with either 1 microMolar dmPGE2 or vehicle control for 2 hours, washed, and then cultured in RPMI-1640/10% HI-FBS at 37° C. for 24 hours, stained for SKL (murine cells) or CD34 (human) and CXCR4 and analyzed by FACS. […] Data are expressed as Mean±SEM % change in mean fluorescence intensity (MFI) of CXCR4 due to treatment with dmPGE2 or vehicle (n=3).

A further assay concerns CXCR4 mRNA. The assay is described as follows: QRT-PCR of CXCR4 mRNA. The format is cell-based. The following applies: for time post-exposure of (maximal) CXCR4 mRNA upregulation: vs vehicle. The protocol: Total RNA was obtained using the absolutely RNA purification kit (Stratagene, La Jolla, Calif.). A constant amount of RNA was reverse transcribed with random primers (Promega, Madison, Wis.) and MMLV-reverse transcriptase (Promega) in a volume of 50 microLiter with 1 milliMolar dNTPs and RNase inhibitor as described (Fukuda and Pelus, 2001). DNase and RNase free water (Ambion, Austin, Tex.) was added to obtain a final concentration equivalent of 10 nanogram RNA/microLiter and 5 microLiter used for QRT-PCR. Primers for SYBR Green QRTPCR were designed to produce an amplicon size of 75-150 bp. QRT-PCR was performed in a total volume of 30 microLiter using Platinum SYBR Green qPCR supermix UDG with Rox (Invitrogen, Carlsbad, Calif.) in an ABI-7000 (Applied Biosystems, Carlsbad, Calif.), with an activation step of 50° C. for 2 min, denaturation at 95° C. for 2 min and amplification for 45 cycles at 95° C.-15 sec, 50° C.-30 sec, 72° C.-30 sec, followed by dissociation to confirm that only one product was obtained.
Referring now to FIG. 4A, the stromal-cell-derived factor-1 alpha (SDF-1a)/CXCR4 axis has been implicated in HSPC trafficking and homing. The study evaluated whether the improved homing of dmPGE2-treated HSPC was the result of increased SDF-1a/CXCR4 signalling.
To evaluate CXCR4, Lineage^neg mouse bone marrow cells or CD34^+ UCB were treated on ice with either 1 microMolar dmPGE2 or vehicle control for 2 hours, washed, and then cultured in RPMI-1640/10% HI-FBS at 37° C. for 24 hours, stained for SKL (murine cells) or CD34 (human) and CXCR4 and analyzed by FACS. Referring now to FIG. 4A, CXCR4 expression on murine KL and SKL cells and human CD34^+ UCB cells 24 hours after treatment with dmPGE2. Data are expressed as Mean±SEM % change in mean fluorescence intensity (MFI) of CXCR4 due to treatment with dmPGE2 or vehicle (n=3).

As to `CCCCC[C@H](O)/C=C/[C@H]1[C@H](O)CC(=O)[C@@H]1C/C=C\CCCC(=O)O` [PGE2, Prostaglandin E2], the “donor (homed) SKL cells in S+G2/M phase” value in the assay with homed SKL cells is on record as ~2 fold. The “increase in CXCR4 expression on CD34+ UCB” value in assay [1] (after PGE2 exposure) was 17.3%. The time post-exposure of (maximal) CXCR4 mRNA upregulation in the assay with CXCR4 mRNA was 6 h.
For `CCCCC(C)(C)[C@H](O)/C=C/[C@H]1[C@H](O)CC(=O)[C@@H]1C/C=C\CCCC(=O)O` [dmPGE2, 16,16-dimethyl prostaglandin E2], the “donor (homed) SKL cells in S+G2/M phase” value with homed SKL cells was ~2 fold. The “CXCR4 expression on CD34+ UCB cells” value in assay [1] (pulse exposure, 24 hours) was “increased CXCR4 expression”. In the assay with CXCR4 mRNA, the “increase in CXCR4 mRNA” value is listed as 2.65 fold and the “time post-exposure of (maximal) CXCR4 mRNA upregulation” value was found to be 6 h.

The values above are taken from patent publication US9107909B2, “Materials and methods to enhance hematopoietic stem cells engraftment procedures” (priority 2008, dated 2015).
